The values that follow come from ChEMBL document CHEMBL1201862, “PubChem BioAssay data set” (2004).

SMILES strings stand for the structures.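 Grown in 96-well plates, cells were treated for 48 hours with each compound at five concentrations. Insufficient inhibition: endpoint recorded as highest concentration tested. GI50 = concentration required for 50% inhibition of growth.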 Calls of active or inactive are those of the source. Rule as the data show it: active = GI50 up to about 1.1 µM and inactive = higher.

Among the test systems are UO-31; HCT-116; SF-268; SR; OVCAR-4; TK-10; CAKI-1; OVCAR-8; UACC-257; RXF 393; NCI-H460; COLO 205; SF-295; NCI-H226; 786-0; IGROV-1; ACHN; MDA-MB-435; PC-3.
What all share (assay): growth of human tumour cells (NCI), 48 h

With `CCOC(=O)Cn1c(=O)[nH]c(=O)c2c1ncn2Cc1ccccc1`, the GI50 with UO-31, in the assay with HCT-116, in the assay on SF-268, in the assay on SR, with OVCAR-4 and in the assay on TK-10 was > 100 µM (inactive) in each case. The GI50 with CAKI-1, in the assay with OVCAR-8, in the assay with UACC-257, with RXF 393, in the assay with NCI-H460 and with COLO 205 was > 100 µM (inactive) each time. Further, the GI50 with SF-295, with NCI-H226, in the assay on 786-0, in the assay with IGROV-1 and in the assay with ACHN was > 100 µM (inactive) in each case.

As for `C=CCC(C)C12CCNC(Cc3ccc(O)cc31)C2C` (configuration not stated), the GI50 in the assay on UO-31 is 38.6 µM (inactive); in the assay on HCT-116, > 100 µM (inactive); in the assay with SF-268, > 100 µM (inactive); in the assay on SR it was 82.4 µM (inactive); in the assay on OVCAR-4, > 100 µM (inactive); in the assay on TK-10, > 100 µM (inactive). In addition, the GI50 in the assay with OVCAR-8 was > 100 µM (inactive); with UACC-257 it was 66.2 µM (inactive); in the assay with RXF 393, > 100 µM (inactive); in the assay on NCI-H460, 89.9 µM (inactive); with COLO 205 it was > 100 µM (inactive); in the assay with SF-295, > 100 µM (inactive). Further, the GI50 in the assay on MDA-MB-435, with NCI-H226, with 786-0, in the assay on IGROV-1 and in the assay with ACHN was > 100 µM (inactive) in each case.

Turning to `NC1C2(CCCCCC2)NC(=O)C12CCCCCC2` (configuration not stated), the GI50 with UO-31, in the assay with HCT-116, in the assay with SF-268, in the assay with SR, in the assay with OVCAR-4 and with TK-10 was > 100 µM (inactive) each time. The GI50 with CAKI-1, with OVCAR-8, in the assay with UACC-257, in the assay on RXF 393, in the assay on NCI-H460 and in the assay on COLO 205 was > 100 µM (inactive) each time. In addition, the GI50 with SF-295, in the assay on 786-0, with IGROV-1 and in the assay with ACHN was > 100 µM (inactive) in each case.

Take `O=[N+]([O-])c1ccc(C2=Nn3cnnc3SC2)o1`: the GI50 in the assay on UO-31 was 21.4 µM (inactive); with HCT-116, 14 µM (inactive); with SF-268, 19.6 µM (inactive); with SR it was 16.7 µM (inactive); in the assay with OVCAR-4, > 10 µM (inactive); in the assay on TK-10, 39.7 µM (inactive). In addition, the GI50 in the assay with CAKI-1 is > 10 µM (inactive); in the assay with OVCAR-8 it was 20.1 µM (inactive); in the assay with UACC-257, 15.5 µM (inactive); in the assay with RXF 393 it was 18.4 µM (inactive); in the assay with NCI-H460 it was 10.6 µM (inactive); in the assay with SF-295 it was 18.3 µM (inactive). Also, the GI50 in the assay on NCI-H226 is 26.4 µM (inactive); with 786-0, 17.3 µM (inactive); in the assay with IGROV-1 it was > 10 µM (inactive); with ACHN, 15.8 µM (inactive).

Turning to `CC(=O)Nc1[nH]n(C)c(=O)c1-c1nnc(C)s1`, the GI50 in the assay on UO-31, with HCT-116, in the assay on SF-268, with SR, with OVCAR-4 and in the assay on TK-10 was > 100 µM (inactive) each time. Also, the GI50 in the assay with CAKI-1, with OVCAR-8, in the assay with UACC-257, in the assay with RXF 393, in the assay on NCI-H460 and with COLO 205 was > 100 µM (inactive) throughout. For the same compound, the GI50 in the assay on NCI-H226, in the assay on 786-0, with IGROV-1 and in the assay with ACHN was > 100 µM (inactive) each time.

For `COC(=O)C1C(C(=O)OC)C2C(=O)C3C(C(=O)OC)C(C(=O)OC)C3C(=O)C12` (configuration not stated), the GI50 in the assay on HCT-116, in the assay on SF-268, in the assay with SR, with OVCAR-4, in the assay on TK-10 and with CAKI-1 was > 100 µM (inactive) each time. Further, the GI50 is > 100 µM (inactive) with OVCAR-8; > 100 µM (inactive) with UACC-257; 25.4 µM (inactive) in the assay on RXF 393; > 100 µM (inactive) with NCI-H460; > 100 µM (inactive) with COLO 205; > 100 µM (inactive) in the assay on SF-295. Besides, the GI50 in the assay on NCI-H226, in the assay with 786-0, in the assay on IGROV-1 and in the assay on ACHN was > 100 µM (inactive) each time.

Take `c1ccc2c(c1)ccc1nc3ccccn3c12`: the GI50 in the assay on UO-31 is 70.6 µM (inactive); in the assay on PC-3, > 100 µM (inactive); with SF-268, > 100 µM (inactive); in the assay on SR, > 100 µM (inactive); in the assay with TK-10, > 100 µM (inactive); in the assay on OVCAR-8, > 100 µM (inactive). Further, the GI50 with UACC-257, in the assay with RXF 393, in the assay with NCI-H460, in the assay on COLO 205, in the assay with SF-295 and in the assay on MDA-MB-435 was > 100 µM (inactive) each time. Also, the GI50 in the assay on NCI-H226, in the assay with 786-0, in the assay with IGROV-1 and with ACHN was > 100 µM (inactive) each time.

Regarding `NC(=S)N/N=C(/CCN1CCCC1)CC(C1=C(O)C2=CCCCC2OC1=O)c1ccccc1` (configuration not stated), the GI50 with UO-31 was > 100 µM (inactive); with HCT-116 it was > 100 µM (inactive); in the assay with SF-268, > 100 µM (inactive); with SR, 70 µM (inactive); with OVCAR-4, > 100 µM (inactive); in the assay with TK-10, > 100 µM (inactive). Also, the GI50 is > 100 µM (inactive) in the assay with CAKI-1; > 100 µM (inactive) with OVCAR-8; > 100 µM (inactive) in the assay with UACC-257; > 100 µM (inactive) with RXF 393; > 100 µM (inactive) in the assay with NCI-H460; 54.1 µM (inactive) in the assay with COLO 205. Further, the GI50 in the assay with SF-295, with NCI-H226, in the assay on 786-0, in the assay on IGROV-1 and with ACHN was > 100 µM (inactive) each time.

With `Nc1c(-c2nc3ccccc3[nH]2)sc(=S)n1-c1ccccc1`, the GI50 was > 100 µM (inactive) in the assay on UO-31; > 100 µM (inactive) in the assay with HCT-116; > 100 µM (inactive) with SF-268; 30.3 µM (inactive) in the assay with SR; > 100 µM (inactive) in the assay on OVCAR-4; > 100 µM (inactive) in the assay on CAKI-1. Moreover, the GI50 in the assay with OVCAR-8 was > 100 µM (inactive); in the assay on UACC-257 it was > 100 µM (inactive); in the assay with RXF 393, 46.9 µM (inactive); with NCI-H460, > 100 µM (inactive); in the assay with COLO 205 it was > 100 µM (inactive); with SF-295, 72.8 µM (inactive). Moreover, the GI50 was > 100 µM (inactive) in the assay with NCI-H226, 61.2 µM (inactive) in the assay with 786-0, > 100 µM (inactive) in the assay with IGROV-1 and 18.4 µM (inactive) in the assay with ACHN.

`CNC(=O)OCc1nc([S+](C)[O-])n(C)c1COC(=O)NC` (configuration not stated): the GI50 in the assay with UO-31 was > 100 µM (inactive); in the assay on HCT-116 it was > 100 µM (inactive); with SF-268, > 100 µM (inactive); with SR, > 100 µM (inactive); with OVCAR-4 it was > 51.9 µM (inactive); in the assay with TK-10, > 100 µM (inactive). In addition, the GI50 is > 58.7 µM (inactive) in the assay with CAKI-1; > 100 µM (inactive) in the assay on OVCAR-8; > 100 µM (inactive) in the assay on UACC-257; > 100 µM (inactive) in the assay with RXF 393; > 100 µM (inactive) in the assay on NCI-H460; > 41.8 µM (inactive) in the assay on COLO 205. Moreover, the GI50 in the assay with SF-295 was > 100 µM (inactive); in the assay with NCI-H226, > 100 µM (inactive); in the assay with 786-0, > 100 µM (inactive); in the assay on IGROV-1, > 50.4 µM (inactive); in the assay with ACHN, > 24.2 µM (inactive).

For the compound `O=C1C2=C(N[C@@H](c3ccccc3)[C@H](c3ccccc3)N2)C(=O)c2ccccc21`, the GI50 in the assay with UO-31, in the assay with HCT-116, in the assay with SF-268, in the assay with SR, with OVCAR-4 and in the assay with TK-10 was > 100 µM (inactive) each time. For the same compound, the GI50 in the assay with CAKI-1, with OVCAR-8, in the assay on UACC-257, in the assay with RXF 393, with NCI-H460 and with SF-295 was > 100 µM (inactive) each time. For the same compound, the GI50 in the assay on NCI-H226 was > 100 µM (inactive); in the assay with 786-0, 76.4 µM (inactive); with IGROV-1, > 100 µM (inactive); in the assay on ACHN it was > 100 µM (inactive).

`Cc1cc(N(CCC#N)CCC#N)ccc1/C(Sc1ccccc1)=C(\NC(=O)/C=C/c1ccccc1)C(=O)Sc1ccccc1`: the GI50 in the assay with UO-31 was 0.731 µM (active); with HCT-116 it was 2.17 µM (inactive); in the assay with SF-268, 0.565 µM (active); with SR it was 0.665 µM (active); in the assay on OVCAR-4, 3.06 µM (inactive); in the assay on TK-10 it was 5.35 µM (inactive). The GI50 with CAKI-1 was 2.05 µM (inactive); with OVCAR-8, 2.94 µM (inactive); in the assay with UACC-257, 5.53 µM (inactive); in the assay on RXF 393, 1.56 µM (inactive); in the assay with NCI-H460, 7.01 µM (inactive); in the assay on COLO 205 it was 2.55 µM (inactive). For the same compound, the GI50 in the assay with SF-295 is 3.17 µM (inactive); with NCI-H226 it was 2.56 µM (inactive); with 786-0, 2.28 µM (inactive); with IGROV-1, 0.805 µM (active); in the assay on ACHN, 4.75 µM (inactive).
